{"source": "patent US20260042801A1", "about": "“COMPOSITIONS AND METHODS FOR DYE-BOUND CYCLIZED PEPTIDES FOR MEDICAL USE” (The Texas A&M University System, priority 2022, published 2026)", "key": {"C3": {"tested_on": "C3", "test": "Astrocyte C3 staining (fluorescent intensity)", "assay_type": "cell-based, mouse", "settings": "astrocytes from 6-month-old male mice, 5 μM, 3 days", "procedure": "(§1) FIGS. 4A-4D: 5c(i) induces Synapsin I production and reduces C3 and GSK-3s expression from astrocytes promoting neuron survival and neurite growth. Primary adult cortical astrocytes from 6-month-old male mice were incubated with 5 μM 5c(i) for 3 days. Graph represents mean±SEM of percent change in fluorescent intensity (Synapsin I and C3) or chemiluminescence (GSK-3β) relative to Vehicle (4A and 4D). Images represent the 4B) Vehicle and 4C) 5 μM 5c(i) treated groups stained with Synapsin I and DAPI. D) Cortical astrocytes from 6-month-old male mice were plated and treated with 5c(i) or Vehicle for 2 days. Cells were then washed and cortical neurons from 6-month-old male mice were added on top of the astrocytes. […] Scale bar=50 μm.\n(§2) To determine if 5c(i) can modulate astrocytes, adult astrocytes from 6-month-old male mice were treated with 5c(i) for 3 days and stained with Synapsin I and C3 to measure changes in fluorescent intensity or western blot was conducted on the cell lysate to assess changes in GSK-3β expression (FIG. 4). […] To determine if 5c(i) treated astrocytes can directly benefit neuronal recovery, astrocytes were cultured with 5c(i) for 2 days before removing 5c(i) from the culture and plating adult neurons on top of the astrocytes for 2DIV, resulting in increased neuron survival and neurite growth. […]"}, "[1]": {"settings": "mouse, in vivo", "experimental": "8-week-old male mice with a severe T8 contusion/compression SCI were injected IP daily with 5c(i) for 7 weeks (5 and 25 mg/kg/day). […] 7 weeks post injury, heparinized plasma was collected and 12B) alanine aminotransferase (ALT), 12C) alkaline phosphatase (ALP), 12D) aspartate aminotransferase (AST), and 12E) blood urea nitrogen (BUN) levels were assessed. […] N=6-8. Graphs show mean and SEM. # (p<0.1) * (p<0.05) ** (p<0.01) *** (p<0.001) **** (p<0.0001). Student's T-test.\nFor the administration of pharmaceutical agents, the vehicle was 0.6 mL/kg of 100% dimethyl sulfoxide (DMSO). 5c(i) (at 5 and 25 mg/kg/day) diluted in vehicle or vehicle alone was administered once daily through intraperitoneal (IP) injections at a volume of 0.6 mL/kg/day.\nSeven weeks after injury, histological analysis was performed on livers, and toxicology screens were conducted on plasma (FIG. 12)."}, "GSK-3β": {"tested_on": "GSK-3β", "test": "Astrocyte GSK-3β western blot", "assay_type": "cell-based, mouse", "settings": "astrocytes from 6-month-old male mice, 5 μM, 3 days, cell lysate", "procedure": "as §1, §2"}, "[2]": {"tested_on": "severe T8 contusion/compression SCI", "test": "Preclinical SCI model: histological analysis of spinal cord", "assay_type": "in vivo, mouse", "settings": "7 weeks post injury", "source_text": "FIGS. 11A-11E: Histological analysis of spinal cords after 5c(i) treatment. […] 7 weeks post injury, spinal cords were sectioned sagittal to conduct histological analyses. Value of 11A) change in intensity of 5-HT, average fluorescence intensity of 11B) IBA1 and 11C) CD68, and number of 11D) CD68+ and 11E) SOX9+ cells in relation to distance from injury (− value represents rostral to injury, + value represents caudal to injury). […] N=6-8. Graphs show mean and SEM. […] Student's T-test.\nMice were sacrificed 7 weeks after injury by a lethal dose of Fatal plus (pentobarbital), then, transcardial perfusion was performed with PBS-Heparin (10,000 unit/L, 20 mL, 5 mL/min) followed by a 4% paraformaldehyde fixative solution (30 mL/mouse, at 5 mL/min). Right after perfusion, tissues were immersed in 4% PFA for 24 hours, transferred to 15% sucrose for 24 hours, then transferred to 30% sucrose for 24 hours before being embedded. Subsequently, the spinal cords (at injury site±1 mm) were cut into 25 μm-thick transverse sections using a freezing microtome (THERMO FISHER SCIENTIFIC® (laboratory reagents), Microm HM550). For immunohistochemistry (IHC), the spinal cord tissue sections were placed in a blocking solution (5% BSA, 0.4% Triton X-100, PBS) for 1 hour at room temperature. This was followed by overnight incubation with primary antibodies at room temperature. The tissue sections were subsequently washed 3 times with 0.4% Triton X-100-PBS, followed by 1 hour incubation at room temperature with the appropriate secondary antibodies (1:500, INVITROGEN™ (laboratory reagents) ALEXA FLUOR® (fluorescent dyes) Plus series). The primary antibodies included biotinylated NeuN (EMD MILLIPORE® (pharmaceuticals and chemicals), MAB377B, 1:500), rat GFAP (FISHER SCIENTIFIC® (laboratory reagents), 130300, 1:500), rabbit Iba1 (FUJIFILM® (camera components) Wako Chemicals, 019-19741, 1:500), rat CD68 (BIO-RAD®, (electrophoresis and chromatography materials) MCA1957, 1:500), goat SOX9 (R&D SYSTEMS® (biological reagents), AF3075, 1:500), and rabbit anti-5-HT (ImmunoStar, 20080, 1:500). Sections were stained with DAPI (1:5000, Millipore Sigma) to visualize the nucleus. The images were acquired using VS120 Virtual Slide Microscope (Olympus) and Axio Observer 7 (ZEISS® (optical products)) and analyzed with QuPath 0.4.3. The contour (polygonal) tool in the Zen 3.2 (Carl Zeiss AG, Jena, Germany) software was used to trace and measure lesion and cavity size. The lesion size was measured by tracing the glial scar border labeled with GFAP surrounding a DAPI^+ inner region. Cavity size was measured by measuring the region within the spinal cord without any visible nuclei yet surrounded by GFAP labeled glial scar. Three spinal cord sections per animal were imaged and analyzed. The 3 sections included the section containing the largest lesion size along with sections 300 μm rostral and caudal. Images were quantified using QuPath software. Eight boxes with a width of 200 μm were drawn both rostral and caudal of the injury epicenter. A contour polygon was made around the spinal cord in each of the sixteen boxes. Fluorescent intensity and cell counting was conducted using automated QuPath software. Histological analysis on liver tissue was conducted by sectioning the left lobe of the liver into 8 μm-thick transverse sections. […] Collagen accumulation was quantified using automated QuPath software to determine the extent of fibrosis."}}, "data": [{"substance": "C-DIRG-C BODIPY® (fluorescent dye) [5c(i)]", "values": [{"measurement": "C3 expression", "setting": "C3", "value": "reduction"}, {"measurement": "alanine aminotransferase (ALT)", "setting": "[1]", "value": "does not alter"}, {"measurement": "alkaline phosphatase (ALP)", "setting": "[1]", "value": "does not alter"}, {"measurement": "aspartate aminotransferase (AST)", "setting": "[1]", "value": "does not alter"}, {"measurement": "blood urea nitrogen (BUN)", "setting": "[1]", "value": "does not alter"}, {"measurement": "GSK-3β expression", "setting": "GSK-3β", "value": "reduction"}, {"measurement": "number of SOX9′ cells", "setting": "[2]; around the injury site", "value": "reduced"}, {"measurement": "prevalence of CD68+ cells", "setting": "[2]; around the injury site", "value": "significantly reduced"}, {"measurement": "CD68 immunoreactivity", "setting": "[2]; at the injury site", "value": "significantly reduced"}, {"measurement": "serotonergic (5-HT) axon immunoreactivity", "setting": "[2]; caudal to the injury site", "value": "increased"}, {"measurement": "IBA1 immunoreactivity", "setting": "[2]; spinal cord", "value": "reduced"}]}]}
